Source: PubChem BioAssay AID1963856 (Molecular Pharmacology Branch, DTP, NCI, 2024)

Test system: LG0567-F671-PDC KRAS tumor spheroid viability
Assay: Anticancer human tumor LG0567-F671-PDC patient-derived lung adenocarcinoma cell line growth inhibition [KRAS2]
Settings: spheroids with HUVEC and MSC; for IC50: curve of first compound; for viability, T/C: stronger effect = lower value
Description: Multicellular complex tumor spheroid response to RAS pathway inhibitors in combination with a targeted agents in patient-derived cell lines with oncogenic KRAS variants from multiple cancer types
A high-throughput screen of multi-cell type tumor spheroids was designed to identify active combinations of targeted small molecules and KRAS pathway inhibitors. Complex spheroids include a stromal component modeled by human endothelial cells (HUVEC) and fibroblasts modeled by human mesenchymal stem cells (MSCs). The concentration ranges selected for each drug and investigational agent were based upon clinically achievable concentrations if the clinical Cmax of the agent was known.
Compounds. The drugs and investigational agents: BI-3406 (NSC825286), BAY-293 (NSC824723), batoprotafib (TNO155; NSC825523), sotorasib (AMG 510; NSC818433), MRTX1257 (NSC819558), elimusertib (BAY 1895344; NSC800525), molibresib (GSK525762; NSC774829), temuterkib (LY3214996; NSC803410), venetoclax (NSC766270), alisertib (NSC759677), olaparib (NSC753686), talazoparib (NSC767125), erdafitinib (NSC781556), ipatasertib (NSC767898), cabozantinib (NSC761068), nintedanib (NSC756659), abemaciclib (NSC768073), docetaxel (NSC628503), trametinib (NSC758246), and sapanisertib (NSC764658) were obtained from the National Cancer Institute (NCI) Developmental Therapeutics Program Chemical Repository. The FDA-approved anticancer drug set is available from the Developmental Therapeutics Program. […] The stock solutions were prepared in dimethyl sulfoxide (DMSO, Sigma-Aldrich, St. Louis, MO, cat. D2650) at 800-fold the tested concentration and stored at -70 degrees C prior to their use. All drugs and investigational agents were tested over a range starting from a high concentration at or near the clinical Cmax and decreasing in half-log increments. If the clinical Cmax for an agent had not been determined, the highest concentration tested was 10 microM.
Cell Culture. All cells were maintained in an incubator at 37 degrees C and 5% CO2 with 95% humidity. The PDC lines were cultured according to standard operating procedures established by the NCI PDMR (https://pdmr.cancer.gov/sops/default.htm). Briefly, all PDCs were thawed and cultured in Matrigel-coated flasks prepared with a working solution of 1X Ham's F-12 nutrient mix, without supplementation (Invitrogen, Waltham, MA, cat. 11765054), 100 U/mL penicillin-streptomycin (Invitrogen, cat. 15140122), and 2.5% Matrigel (Corning Inc., Corning, NY, cat. 354248) for the first three passages. All PDCs were cultured in complete DMEM/F-12 media containing advanced DMEM/F-12 (Invitrogen, cat. 12634028), 4.9% defined fetal bovine serum, heat inactivated (HyClone Laboratories Inc., Logan, UT, cat. SH30070.03HI), 389 ng/mL hydrocortisone (Sigma-Aldrich, cat. H4001), 9.7 ng/mL human EGF recombinant protein (Invitrogen, cat. PHG0313), 23.4 microg/mL adenine (Sigma-Aldrich, cat. A2786), 97.3 U/mL penicillin-streptomycin (Invitrogen, cat. 15140122), 1.9 mM L-glutamine (Invitrogen, cat. 25030081), and 9.7 microM Y-27632 dihydrochloride (Tocris Bioscience, Bristol, United Kingdom, cat. 1254). The PDCs were cultured in complete DMEM/F12 media without 9.7 microM Y-27632 dihydrochloride for at least two passages prior to the screen. The established cell line HOP-62 was cultured in RPMI 1640 medium, HEPES (Invitrogen, cat. 22400105) with 10% defined fetal bovine serum (HyClone Laboratories Inc., cat. SH30070.03) and 2 mM L-glutamine (Invitrogen, cat. 25030081). The pooled donor HUVEC were cultured in endothelial cell growth medium 2 (PromoCell, Heidelberg, Germany, cat. C-22011) and the hMSC were cultured in mesenchymal stem cell growth medium 2 (PromoCell, cat. C-28009). For all experiments, HUVEC and hMSC were used at passages </=5, while the malignant cell lines were used at passages </=15. […]

[1] = second compound 0.1 µM, first compound 0.0316 µM
[2] = second compound 0.1 µM, first compound 0.1 µM
[3] = second compound 0.1 µM, first compound 0.316 µM
[4] = second compound 0.1 µM, first compound 1 µM
[5] = second compound 0.1 µM, first compound 3.16 µM
[6] = second compound 0.1 µM, first compound 10 µM
[7] = second compound 0.316 µM, first compound 0.0316 µM
[8] = second compound 0.316 µM, first compound 0.1 µM
[9] = second compound 0.316 µM, first compound 0.316 µM
[10] = second compound 0.316 µM, first compound 1 µM
[11] = second compound 0.316 µM, first compound 3.16 µM
[12] = second compound 0.316 µM, first compound 10 µM
[13] = second compound 1 µM, first compound 0.0316 µM
[14] = second compound 1 µM, first compound 0.1 µM
[15] = second compound 1 µM, first compound 0.316 µM
[16] = second compound 1 µM, first compound 1 µM
[17] = second compound 1 µM, first compound 3.16 µM
[18] = second compound 1 µM, first compound 10 µM
[19] = second compound 3.16 µM, first compound 0.0316 µM
[20] = second compound 3.16 µM, first compound 0.1 µM
[21] = second compound 3.16 µM, first compound 0.316 µM
[22] = second compound 3.16 µM, first compound 1 µM
[23] = second compound 3.16 µM, first compound 3.16 µM
[24] = second compound 3.16 µM, first compound 10 µM
[25] = second compound 10 µM, first compound 0.0316 µM
[26] = second compound 10 µM, first compound 0.1 µM
[27] = second compound 10 µM, first compound 0.316 µM
[28] = second compound 10 µM, first compound 1 µM
[29] = second compound 10 µM, first compound 3.16 µM
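Further: drug exposure lasted seven days after spheroids formed for three days.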
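Wherever viability, T/C is given: 100% = DMSO vehicle control viability.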

| SMILES | IC50 (second compound 0.1 µM) [nM] | IC50 (second compound 0.316 µM) [nM] | IC50 (second compound 1 µM) [nM] | IC50 (second compound 3.16 µM) [nM] | viability, T/C [1] [%] | viability, T/C [2] [%] | viability, T/C [3] [%] | viability, T/C [4] [%] | viability, T/C [5] [%] | viability, T/C [7] [%] | viability, T/C [8] [%] | viability, T/C [9] [%] | viability, T/C [10] [%] | viability, T/C [11] [%] | viability, T/C [13] [%] | viability, T/C [14] [%] | viability, T/C [15] [%] | viability, T/C [16] [%] | viability, T/C [17] [%] | viability, T/C [19] [%] | further results |
| --- | --- | --- | --- | --- | --- | --- | --- | --- | --- | --- | --- | --- | --- | --- | --- | --- | --- | --- | --- | --- | --- |
| COC(=O)c1ccc2c(C(=Nc3ccc(N(C)C(=O)CN4CCN(C)CC4)cc3)c3ccccc3)c(O)[nH]c2c1 + C=CC(=O)N1CCN(c2nc(OCC3CCCN3C)nc3c2CCN(c2cccc4cccc(C)c24)C3)CC1CC#N | < 31.6 | < 31.6 | < 31.6 | < 31.6 | 21.6 | 20.4 | 23.4 | 27.4 | 26.1 | 23.2 | 21.1 | 22.7 | 27.8 | 27.7 | 26.6 | 26.3 | 27.6 | 28.8 | 23.9 | 17.9 | IC50 (second compound 0.0316 µM): < 31.6 nM; viability, T/C (second compound 0.0316 µM, first compound 0.0316 µM): 23.7%; viability, T/C (second compound 0.0316 µM, first compound 0.1 µM): 23.2%; viability, T/C (second compound 0.0316 µM, first compound 0.316 µM): 21.9%; viability, T/C (second compound 0.0316 µM, first compound 1 µM): 30.4%; viability, T/C (second compound 0.0316 µM, first compound 3.16 µM): 26.8%; viability, T/C (second compound 0.0316 µM, first compound 10 µM): 31.9%; viability, T/C [6]: 27%; viability, T/C [12]: 28.3%; viability, T/C [18]: 23.4%; viability, T/C [20]: 29.2%; viability, T/C [21]: 13.2%; viability, T/C [22]: 0.34%; viability, T/C [23]: 0.12%; viability, T/C [24]: 0.93% |
| CC1COCCN1c1cc(-c2ccnn2C)c2ccnc(-c3ccn[nH]3)c2n1 (configuration not stated) + C=CC(=O)N1CCN(c2nc(=O)n(-c3c(C)ccnc3C(C)C)c3nc(-c4c(O)cccc4F)c(F)cc23)C(C)C1 | < 10 | < 10 | < 10 | < 10 | 18.8 | 16 | 14.2 | 11.2 | 10.8 | 18.6 | 14.2 | 11 | 9.77 | 10.6 | 19.3 | 14.3 | 11.3 | 9.8 | 12.5 | 14.9 | IC50 (second compound 10 µM): < 10 nM; viability, T/C (second compound 0.1 µM, first compound 0.01 µM): 23.9%; viability, T/C (second compound 0.316 µM, first compound 0.01 µM): 21.8%; viability, T/C (second compound 1 µM, first compound 0.01 µM): 21.3%; viability, T/C (second compound 3.16 µM, first compound 0.01 µM): 15.7%; viability, T/C [20]: 12.8%; viability, T/C [21]: 11.3%; viability, T/C [22]: 9.54%; viability, T/C [23]: 10.3%; viability, T/C (second compound 10 µM, first compound 0.01 µM): 19.8%; viability, T/C [25]: 17.4%; viability, T/C [26]: 15.5%; viability, T/C [27]: 14.9%; viability, T/C [28]: 12.2%; viability, T/C [29]: 12.8% |
| COC(=O)c1ccc2c(C(=Nc3ccc(N(C)C(=O)CN4CCN(C)CC4)cc3)c3ccccc3)c(O)[nH]c2c1 + C=CC(=O)N1CCN(c2nc(=O)n(-c3c(C)ccnc3C(C)C)c3nc(-c4c(O)cccc4F)c(F)cc23)C(C)C1 | < 31.6 | < 31.6 | < 31.6 | < 31.6 | 23.1 | 22 | 25.9 | 28.3 | 30 | 20.8 | 23.3 | 20.1 | 23.2 | 29.7 | 21.7 | 22 | 21.6 | 32 | 26.6 | 18.8 | IC50 (second compound 10 µM): < 31.6 nM; viability, T/C [6]: 33%; viability, T/C [12]: 27.9%; viability, T/C [18]: 30.1%; viability, T/C [20]: 18.8%; viability, T/C [21]: 19.6%; viability, T/C [22]: 22.6%; viability, T/C [23]: 28%; viability, T/C [24]: 30.1%; viability, T/C [25]: 26.3%; viability, T/C [26]: 24.4%; viability, T/C [27]: 22.2%; viability, T/C [28]: 24.6%; viability, T/C [29]: 27.9%; viability, T/C (second compound 10 µM, first compound 10 µM): 1.41% |
| CC(C)n1nc(-c2ccc3oc(N)nc3c2)c2c(N)ncnc21 |  |  |  |  |  |  |  |  |  |  |  |  |  |  |  |  |  |  |  |  | viability, T/C (compound 0.000316 µM): 98.5% [middle of 5 runs]; viability, T/C (compound 0.001 µM): 89.3% [middle of 5 runs] |
